Assay results reported in US7560597B2, “2′,4′-dichloro-biphenyl-4-yl-hydroxy-ketones and related compounds and their use as therapeutic agents” (The University Court of the University of Aberdeen, priority 2007, dated 2009).
“Also recorded” adds a separate entry of the source.

How the values were obtained:
[1] = test system: macrophage cell line J774; assay: Alamar Blue macrophage J774 viability assay; type: cell-based; conditions: Mus musculus, J774, 72 h, 72 hours culture with compound
Procedure: Initial screening of candidate compounds was performed using viability assays on cultures of the macrophage cell line J774, which have been used before as a model system for osteoclast survival (see, e.g., Luckman et al., 1998). The assays are based on the survival of the J774 macrophage cell line; macrophages are closely related to osteoclasts, and contain similar high levels of esterase activity.
J774 cells were plated at 10^4 cells per well in 150 μL αMEM (α Modified Eagle Medium) in 96-well plates and grown overnight. The next day, test compounds were added to the cultures, and cultures were continued for another 72 hours. At the end of the culture period, cell survival was determined using an Alamar Blue assay as previously described (see, e.g., Nociari et al., 1998).
Alamar Blue is an oxidation-reduction sensitive indicator. The dye itself is in the oxidised state, which is blue and non-fluorescent. The dye can accept electrons from reducing species, such as NADPH and FADH, to form a reduced dye species, which is red and fluorescent. Thus the transformation from oxidised form to reduced form can be measured by fluorimetric or colourimetric means. For fluorescence measurements, 530-560 nm excitation and 590 nm emission wavelengths are typically used. For colourimetric measurements, absorbance is measured at 570 nm (reduced form) and 600 nm (oxidised form) and a simple calculation performed to determine the relative quantities of the two species.
A high ratio of the reducing species, NADPH and FADH, to the corresponding oxidised species, NADP and FAD, is an indicator that cells are proliferating and viable. A low ratio indicates cells that are quiescent or non-viable.
Briefly, Alamar Blue (Biosource International) was added undiluted to the each well (1:10 v/v, 15 μL). The plate was incubated at 37° C. for 3-4 hours and the fluorescence was measured at 590 nm, with a 25 nm bandwidth. A high reading indicated cells with normal viability, and a low reading indicated cells that have been damaged and are no longer proliferating normally. The controls gave a high fluorescence reading, indicating a high number of live, healthy cells. A potent test compound gave a low fluorescence reading. The average results for each test compound (n=5) were expressed as a percent (%) of the average control value.
Addition of Compounds. All of the compounds studied were made up as 100 mM solutions in DMSO. These stock solutions were then diluted 100 or 1000× in culture medium (αMEM). From these 1 mM or 100 μM solutions, convenient quantities (3-15 μL) were added directly to the wells so as to give the desired final compound concentration.

[2] = test system: mouse-ovariectomy bone loss model; assay: Ovariectomy induced bone loss (pQCT trabecular bone density); type: in vivo; conditions: OVX mice, 20 mg/kg orally
Procedure: Animals. Female 9 week-old C57/BL6 mice were used. Animals were housed in a designated animal facility and routinely maintained on a 12 hour:12 hour light:dark cycle and given ad libitum access to food and water.
Ovariectomy induced bone loss. Bilateral ovariectomy (Ovx) was performed under general anaesthesia. Sham ovariectomy (Sham) was similarly performed but with externalisation and replacement of the ovaries. Animals were given a daily injection of (a) test compound (e.g., 10 mg/kg) in vehicle (corn oil), or (b) vehicle (corn oil). After 21 days, the animals were killed, and the tibial bones were dissected and used for bone mineral density measurements and histomorphometric analysis (see below).
Bone Mineral Measurements. Measurements of bone mineral density (BMD) at the left proximal tibial metaphysis were determined by peripheral quantitative computed tomography (pQCT) using an XCT Research M bone densitometer with a voxel size of 70 μm and analysis software version 5.1.4 (Stratec Medizintechnik, Pforzheim, Germany). […]
Statistical Analyses. […] Significant differences between groups were determined by ANOVA followed by post-hoc testing using Dunnet's post-test. […]
Compounds ABD68, ABD328 and ABD355 (dosage 20 mg/kg, orally) were investigated in vivo using ovariectomy induced bone loss assessed using peripheral quantitative computed tomography, as described above.

[3] = In vivo pharmacokinetics: serum levels after oral dosage (HPLC/UV); set-up: species or system rat; conditions: rats, 10 mg/kg oral
Procedure: Absorption and metabolic stability were studied using an in vivo pharmacokinetics assay. Drug levels assessed using HPLC/UV.
Following overnight starvation, male Wistar rats (250 g) were given a bolus gavage of 500 μL of a solution of test compound in corn oil (5 mg/ml). Blood samples (1 mL, whole blood) were taken at various time intervals and the serum collected following centrifugation. Samples were frozen until required for analysis.
Ethyl acetate (4 mL) was added to the defrosted serum and the samples mixed for 20 minutes. Following centrifugation, the ethyl acetate layer was collected and evaporated under a stream of nitrogen. The residue was reconstituted in mobile phase and 20 μL injected onto the chromatogram.
Standard calibration curves were prepared for each of the test compounds and were linear in the range of 1 ng/mL to 250 ng/mL.
• Column: HIRPB C18 (150×4.6 mm). • Mobile phase: 60% 25 mM ammonium acetate, pH 4; 40% acetonitrile. • Flow rate: 1 mL/minute. • Detection: Peaks detected by UV absorption at λmax in the range of 240-275 nm.
Serum levels of compounds ABD328, ABD345 and ABD430 following oral dosage (10 mg/kg) over the course of 60 minutes were investigated in vivo in rats using an HPLC/UV detection system, as described above.

[4] = test system: mouse collagen-induced arthritis model; assay: Collagen-induced arthritis model, joint inflammation scoring; type: in vivo; conditions: for total joint score (sum of joint inflammation scores of the study group): 21-day period, n=10, untreated group 47, FIG. 3
Procedure: Collagen-induced arthritis (CIA) was induced in 8-week old male DBA/1 mice, by intradermal injection of 100 μL of chicken collagen type II (2 mg/mL) suspended in complete Freund's adjuvant supplemented with 2 mg/mL devitalised M. Tuberculosis into the base of the tail. This will lead to joint inflammation in >80% of the animals within 4 weeks. Treatment with ABD328 (10 mg/kg/day, orally or i.p., delivered in corn oil) was started when joint inflammation became apparent in the first animals (in this experiment 15 days after injection), and the experiment was terminated 3 weeks later. For each animal, the scores for all four joints were added (maximal score=12).
Compound ABD328 (dosage 10 mg/kg, i.p. or oral) was investigated in vivo using the collagen-induced arthritis model, assessed using joint inflammation severity scoring, as described above.

[5] = Table 3 (variation of W), J774 cells

With `OCCCCCC(O)c1ccc(-c2ccc(Cl)cc2Cl)cc1` (racemic) [ABD300, (R,S)-1-(2′,4′-Dichloro-biphenyl-4-yl)-hexane-1,6-diol] the IC50 [1, 5] was 8 ± 2 µM.
In the case of `O=C(CCCCCO)c1ccc(-c2ccc(Cl)cc2Cl)cc1` [ABD328, 1-(2′,4′-Dichloro-biphenyl-4-yl)-6-hydroxy-hexan-1-one], the IC50 ([1]; Table 2, J774 cells) is reported as 12 ± 2 µM, the IC50 [1, 5] is reported as 11 ± 3 µM and the “effect on ovariectomy-induced bone loss (in words)” value ([2]; 20 mg/kg) is reported as “fully reverse the effects of ovariectomy-induced bone loss; also recorded: fully prevents bone loss”. For the same compound, the “increase in trabecular bone density” value ([2]; relative to the control group (OVX no drug: 34% decrease), FIG. 1) was 6%, the “metabolic stability (in words)” value ([3]; in vivo serum levels) was “good degree of metabolic stability” and the “oral absorption (blood serum levels), in words” value ([3]; over 60 minutes, FIG. 2) was “well absorbed”. For the same compound, the “total joint score (sum of joint inflammation scores of the study group)” value ([4]; 10 mg/kg/day i.p.) was 5, the “total joint score (sum of joint inflammation scores of the study group)” value ([4]; 10 mg/kg/day orally) was 13 and the “effect on collagen-induced arthritis / inflammation (in words)” value ([4]; 10 mg/kg/day, i.p. or oral) was “fully reverse the effects of collagen-induced arthritis; also recorded: prevents inflammation”.
Work on `OCCCCC/C(=N\O)c1ccc(-c2ccc(Cl)cc2Cl)cc1` [ABD468, 1-(2′,4′-Dichloro-biphenyl-4-yl)-6-hydroxy-hexan-1-one oxime] yielded an IC50 [1, 5] of 7 ± 2 µM.
In the case of `OCCCCC[C@@H](O)c1ccc(-c2ccc(Cl)cc2Cl)cc1` [ABD511, (R)-1-(2′,4′-Dichloro-biphenyl-4-yl)-hexane-1,6-diol], the IC50 [1, 5] is reported as 4 ± 2 µM.
Work on `OCCCCC[C@H](O)c1ccc(-c2ccc(Cl)cc2Cl)cc1` [ABD513, (S)-1-(2′,4′-Dichloro-biphenyl-4-yl)-hexane-1,6-diol] yielded an IC50 [1, 5] of 11 ± 4 µM.
